Source: the kinase profiling compilation of Christmann-Franck et al. (2016)

What was measured:
Test in all cases: radiometric filter-binding kinase assay, Kinase HotSpot
Conditions in all cases: compound 0.5 µM; ATP 10 µM
CDK6 CCND3 (human) = CDK6 CCND3 (human) (UniProt P30281+Q00534)
ROS1 (human) = ROS1 (human) (UniProt P08922)
CSNK2A2 (human) = CSNK2A2 (human) (UniProt P19784)
CAMKK2 (human) = CAMKK2 (human) (UniProt Q96RR4)
NEK1 (human) = NEK1 (human) (UniProt Q96PY6)
HIPK4 (human) = HIPK4 (human) (UniProt Q8NE63)
TEC (human) = TEC (human) (UniProt P42680)
PTK6 (human) = PTK6 (human) (UniProt Q13882)
STK39 (human) = STK39 (human) (UniProt Q9UEW8)
FLT1 (human) = FLT1 (human) (UniProt P17948)
RPS6KA5 KD2 (human) = RPS6KA5 KD2 (human) (UniProt O75582)
MAP2K2 (human) = MAP2K2 (human) (UniProt P36507)
STK17A (human) = STK17A (human) (UniProt Q9UEE5)
DYRK1A (human) = DYRK1A (human) (UniProt Q13627)
WEE1 (human) = WEE1 (human) (UniProt P30291)
DYRK4 (human) = DYRK4 (human) (UniProt Q9NR20)
CSNK1G3 (human) = CSNK1G3 (human) (UniProt Q9Y6M4)
TGFBR1 (human) = TGFBR1 (human) (UniProt P36897)
MELK (human) = MELK (human) (UniProt Q14680)
ACVRL1 (human) = ACVRL1 (human) (UniProt P37023)
KDR (human) = KDR (human) (UniProt P35968)
PRKCB1 (human) = PRKCB1 (human) (UniProt P05771)
[1] = biological target: JAK1 JH1 catalytic (human) (UniProt P23458)
STK25 (human) = STK25 (human) (UniProt O00506)
PTK2B (human) = PTK2B (human) (UniProt Q14289)
MAPK1 (human) = MAPK1 (human) (UniProt P28482)
EPHA1 (human) = EPHA1 (human) (UniProt P21709)
PKN2 (human) = PKN2 (human) (UniProt Q16513)
CDK9 CCNK (human) = CDK9 CCNK (human) (UniProt O75909+P50750)
KIT (human) = KIT (human) (UniProt P10721)
NEK2 (human) = NEK2 (human) (UniProt P51955)
RPS6KA2 KD1 KD2 (human) = RPS6KA2 KD1 KD2 (human) (UniProt Q15349)
CHUK (human) = CHUK (human) (UniProt O15111)
MAPKAPK2 (human) = MAPKAPK2 (human) (UniProt P49137)
DCLK2 (human) = DCLK2 (human) (UniProt Q8N568)
PRKCH (human) = PRKCH (human) (UniProt P24723)
TSSK1B (human) = TSSK1B (human) (UniProt Q9BXA7)
AURKC (human) = AURKC (human) (UniProt Q9UQB9)
CSK (human) = CSK (human) (UniProt P41240)
CLK3 (human) = CLK3 (human) (UniProt P49761)
DYRK1B (human) = DYRK1B (human) (UniProt Q9Y463)
GSK3A (human) = GSK3A (human) (UniProt P49840)

ROS1 (human), sequence (P08922 whole entry, looked up): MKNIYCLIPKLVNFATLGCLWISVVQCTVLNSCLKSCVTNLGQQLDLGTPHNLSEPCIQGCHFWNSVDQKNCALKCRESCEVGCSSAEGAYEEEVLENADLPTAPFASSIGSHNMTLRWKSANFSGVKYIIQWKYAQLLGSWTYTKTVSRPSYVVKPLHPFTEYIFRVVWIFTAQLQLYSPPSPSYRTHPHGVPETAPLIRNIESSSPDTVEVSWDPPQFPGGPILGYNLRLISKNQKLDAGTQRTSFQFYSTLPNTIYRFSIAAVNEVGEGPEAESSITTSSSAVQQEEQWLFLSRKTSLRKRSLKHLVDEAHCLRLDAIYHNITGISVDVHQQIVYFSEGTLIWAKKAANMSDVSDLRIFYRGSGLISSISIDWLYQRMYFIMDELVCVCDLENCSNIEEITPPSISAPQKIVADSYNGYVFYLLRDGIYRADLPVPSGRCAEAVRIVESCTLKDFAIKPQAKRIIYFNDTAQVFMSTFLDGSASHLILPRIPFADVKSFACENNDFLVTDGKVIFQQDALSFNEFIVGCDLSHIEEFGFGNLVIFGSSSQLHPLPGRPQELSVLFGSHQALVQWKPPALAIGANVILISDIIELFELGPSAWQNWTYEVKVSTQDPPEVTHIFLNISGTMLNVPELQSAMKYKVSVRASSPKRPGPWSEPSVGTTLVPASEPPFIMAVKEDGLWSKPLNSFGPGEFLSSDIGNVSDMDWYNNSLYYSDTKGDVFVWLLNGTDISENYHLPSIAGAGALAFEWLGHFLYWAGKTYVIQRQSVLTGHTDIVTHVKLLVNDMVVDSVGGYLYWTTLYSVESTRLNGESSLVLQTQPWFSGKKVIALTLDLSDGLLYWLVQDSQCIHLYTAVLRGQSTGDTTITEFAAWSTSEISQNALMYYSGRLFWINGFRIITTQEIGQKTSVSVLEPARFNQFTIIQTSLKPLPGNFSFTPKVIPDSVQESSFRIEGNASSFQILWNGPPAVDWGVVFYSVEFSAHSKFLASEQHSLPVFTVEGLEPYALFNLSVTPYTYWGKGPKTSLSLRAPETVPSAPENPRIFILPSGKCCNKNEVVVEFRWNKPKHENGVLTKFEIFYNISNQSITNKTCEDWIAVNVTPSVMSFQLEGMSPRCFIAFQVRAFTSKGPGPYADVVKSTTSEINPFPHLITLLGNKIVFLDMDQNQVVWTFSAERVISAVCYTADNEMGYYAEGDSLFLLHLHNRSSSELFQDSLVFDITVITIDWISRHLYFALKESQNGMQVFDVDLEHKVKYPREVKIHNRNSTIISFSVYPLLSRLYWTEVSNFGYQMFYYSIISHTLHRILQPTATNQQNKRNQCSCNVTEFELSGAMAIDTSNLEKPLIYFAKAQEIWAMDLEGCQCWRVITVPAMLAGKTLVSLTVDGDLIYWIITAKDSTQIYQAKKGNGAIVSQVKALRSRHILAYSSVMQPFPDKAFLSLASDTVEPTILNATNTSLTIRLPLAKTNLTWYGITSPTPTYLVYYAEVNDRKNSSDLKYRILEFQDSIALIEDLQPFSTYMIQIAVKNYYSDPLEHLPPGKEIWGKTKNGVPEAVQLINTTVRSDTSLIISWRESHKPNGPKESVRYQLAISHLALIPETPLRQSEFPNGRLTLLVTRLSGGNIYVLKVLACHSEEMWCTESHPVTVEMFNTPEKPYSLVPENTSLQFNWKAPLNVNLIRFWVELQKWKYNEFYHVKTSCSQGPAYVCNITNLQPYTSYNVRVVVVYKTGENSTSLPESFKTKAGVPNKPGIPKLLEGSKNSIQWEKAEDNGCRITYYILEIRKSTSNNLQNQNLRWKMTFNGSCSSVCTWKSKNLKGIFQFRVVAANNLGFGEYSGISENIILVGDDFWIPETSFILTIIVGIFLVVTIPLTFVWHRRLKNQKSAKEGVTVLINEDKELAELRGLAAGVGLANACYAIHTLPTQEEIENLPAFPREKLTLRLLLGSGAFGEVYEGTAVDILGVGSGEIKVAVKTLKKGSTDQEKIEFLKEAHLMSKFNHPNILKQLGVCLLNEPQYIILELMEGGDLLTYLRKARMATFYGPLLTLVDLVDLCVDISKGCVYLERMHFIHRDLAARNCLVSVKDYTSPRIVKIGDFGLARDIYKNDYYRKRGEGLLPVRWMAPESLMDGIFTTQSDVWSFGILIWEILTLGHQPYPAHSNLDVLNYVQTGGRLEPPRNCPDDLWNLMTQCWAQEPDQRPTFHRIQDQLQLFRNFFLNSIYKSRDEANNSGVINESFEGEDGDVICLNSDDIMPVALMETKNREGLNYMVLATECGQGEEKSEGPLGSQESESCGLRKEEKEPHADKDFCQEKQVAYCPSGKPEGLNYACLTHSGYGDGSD
EPHA1 (human), sequence (P21709 whole entry, looked up): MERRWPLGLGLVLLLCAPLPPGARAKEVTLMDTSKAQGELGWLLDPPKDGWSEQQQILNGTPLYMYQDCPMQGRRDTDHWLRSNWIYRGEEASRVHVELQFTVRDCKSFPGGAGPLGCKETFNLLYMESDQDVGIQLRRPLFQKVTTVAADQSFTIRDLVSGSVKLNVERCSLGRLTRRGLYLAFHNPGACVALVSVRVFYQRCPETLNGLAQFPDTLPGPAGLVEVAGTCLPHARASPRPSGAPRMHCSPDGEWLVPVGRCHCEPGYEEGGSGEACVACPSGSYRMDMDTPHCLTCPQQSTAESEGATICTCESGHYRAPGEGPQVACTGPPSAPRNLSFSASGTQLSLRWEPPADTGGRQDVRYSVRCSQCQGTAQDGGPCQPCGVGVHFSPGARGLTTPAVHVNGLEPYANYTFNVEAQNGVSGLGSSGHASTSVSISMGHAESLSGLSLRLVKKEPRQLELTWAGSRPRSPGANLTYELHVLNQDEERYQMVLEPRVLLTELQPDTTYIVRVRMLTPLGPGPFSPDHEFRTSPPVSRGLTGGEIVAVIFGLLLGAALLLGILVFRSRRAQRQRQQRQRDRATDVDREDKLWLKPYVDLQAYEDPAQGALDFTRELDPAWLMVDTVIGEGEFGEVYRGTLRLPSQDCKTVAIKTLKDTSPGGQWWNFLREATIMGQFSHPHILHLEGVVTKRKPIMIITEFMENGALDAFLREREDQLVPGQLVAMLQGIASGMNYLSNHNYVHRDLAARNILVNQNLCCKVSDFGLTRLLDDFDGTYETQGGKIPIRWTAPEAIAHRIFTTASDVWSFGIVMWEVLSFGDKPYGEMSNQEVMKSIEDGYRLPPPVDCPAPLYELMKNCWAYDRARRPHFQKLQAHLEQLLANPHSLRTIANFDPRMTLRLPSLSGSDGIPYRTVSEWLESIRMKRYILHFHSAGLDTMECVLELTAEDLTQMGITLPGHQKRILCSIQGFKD
PTK6 (human), sequence (Q13882 whole entry, looked up): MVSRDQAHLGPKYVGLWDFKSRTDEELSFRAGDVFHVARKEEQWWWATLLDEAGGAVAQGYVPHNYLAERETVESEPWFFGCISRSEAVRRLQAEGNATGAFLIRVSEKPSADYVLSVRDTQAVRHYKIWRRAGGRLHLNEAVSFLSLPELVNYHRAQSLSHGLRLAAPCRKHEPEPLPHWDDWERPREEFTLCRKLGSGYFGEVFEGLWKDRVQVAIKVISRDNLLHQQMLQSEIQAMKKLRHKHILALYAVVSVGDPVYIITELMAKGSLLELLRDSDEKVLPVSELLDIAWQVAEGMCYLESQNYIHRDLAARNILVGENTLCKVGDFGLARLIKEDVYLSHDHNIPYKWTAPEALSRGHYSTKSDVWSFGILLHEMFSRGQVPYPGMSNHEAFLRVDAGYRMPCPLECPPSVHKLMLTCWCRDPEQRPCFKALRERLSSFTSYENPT
RPS6KA5 KD2 (human), sequence (O75582 whole entry, looked up): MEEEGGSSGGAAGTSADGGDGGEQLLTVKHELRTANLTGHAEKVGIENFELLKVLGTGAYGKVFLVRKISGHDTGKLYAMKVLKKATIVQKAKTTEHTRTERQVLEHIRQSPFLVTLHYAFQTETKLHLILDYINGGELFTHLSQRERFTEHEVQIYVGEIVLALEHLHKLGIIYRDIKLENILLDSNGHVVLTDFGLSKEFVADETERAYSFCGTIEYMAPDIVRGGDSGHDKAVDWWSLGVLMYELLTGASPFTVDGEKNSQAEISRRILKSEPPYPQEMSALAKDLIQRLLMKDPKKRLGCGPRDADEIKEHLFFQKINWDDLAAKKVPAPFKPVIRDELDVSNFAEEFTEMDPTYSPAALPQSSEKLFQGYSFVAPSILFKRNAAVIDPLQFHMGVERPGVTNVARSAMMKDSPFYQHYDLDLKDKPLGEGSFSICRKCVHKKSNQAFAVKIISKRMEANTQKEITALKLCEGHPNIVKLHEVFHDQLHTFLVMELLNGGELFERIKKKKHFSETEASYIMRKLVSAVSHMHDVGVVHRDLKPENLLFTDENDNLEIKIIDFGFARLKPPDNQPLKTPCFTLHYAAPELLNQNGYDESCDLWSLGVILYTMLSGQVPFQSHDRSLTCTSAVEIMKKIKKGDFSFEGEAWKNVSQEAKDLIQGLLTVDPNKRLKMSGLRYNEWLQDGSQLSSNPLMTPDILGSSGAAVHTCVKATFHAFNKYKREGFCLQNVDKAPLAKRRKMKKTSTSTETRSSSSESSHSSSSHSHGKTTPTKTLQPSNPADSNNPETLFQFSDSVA
STK17A (human), sequence (Q9UEE5 whole entry, looked up): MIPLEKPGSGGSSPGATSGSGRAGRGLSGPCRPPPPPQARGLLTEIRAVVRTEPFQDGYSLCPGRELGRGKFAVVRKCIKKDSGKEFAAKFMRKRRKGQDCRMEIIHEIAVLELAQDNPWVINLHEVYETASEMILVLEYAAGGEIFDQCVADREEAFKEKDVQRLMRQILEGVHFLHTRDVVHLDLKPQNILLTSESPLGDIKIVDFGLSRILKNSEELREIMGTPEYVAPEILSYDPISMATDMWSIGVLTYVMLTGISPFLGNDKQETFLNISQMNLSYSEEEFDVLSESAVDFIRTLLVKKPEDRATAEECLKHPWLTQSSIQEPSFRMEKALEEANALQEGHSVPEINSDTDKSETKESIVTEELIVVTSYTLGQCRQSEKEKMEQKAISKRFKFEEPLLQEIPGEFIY

Which residual activity (CDK6 CCND3 (human)) does the source give for `FC(F)(F)c1ccc(/C=C/c2nc(COc3ccc(CCCCn4ccnn4)cc3)co2)cc1` here?
Its residual activity is 90%.

What about the residual activity (ROS1 (human)) of the same compound?
Its residual activity is 93.3%.

And the residual activity (CSNK2A2 (human))?
Its residual activity is 102%.

And the residual activity (CAMKK2 (human))?
The residual activity was 101%.

And the residual activity (NEK1 (human))?
The residual activity was 94.5%.

And the residual activity (HIPK4 (human))?
Its residual activity is 105%.

And the residual activity (TEC (human))?
The residual activity was 86.4%.

And the residual activity (PTK6 (human))?
Its residual activity is 97.8%.

What about the residual activity (STK39 (human)) of the same compound?
The residual activity was 88.3%.

What about the residual activity (FLT1 (human)) of the same compound?
Its residual activity is 95.5%.

And the residual activity (RPS6KA5 KD2 (human))?
Its residual activity is 111%.

And the residual activity (MAP2K2 (human))?
Its residual activity is 114%.

And the residual activity (STK17A (human))?
The residual activity was 103%.

What about the residual activity (DYRK1A (human)) of the same compound?
The residual activity was 105%.

And the residual activity (WEE1 (human))?
Its residual activity is 101%.

What about the residual activity (DYRK4 (human)) of the same compound?
The residual activity was 101%.

What about the residual activity (CSNK1G3 (human)) of the same compound?
The residual activity was 96.7%.

What about the residual activity (TGFBR1 (human)) of the same compound?
The residual activity was 98.8%.

What about the residual activity (MELK (human)) of the same compound?
Its residual activity is 85.4%.

And the residual activity (ACVRL1 (human))?
Its residual activity is 103%.

And the residual activity (KDR (human))?
The residual activity was 106%.

And the residual activity (PRKCB1 (human))?
The residual activity was 103%.

What about the residual activity [1] of the same compound?
The residual activity was 103%.

What about the residual activity (STK25 (human)) of the same compound?
The residual activity was 91.8%.

What about the residual activity (PTK2B (human)) of the same compound?
Its residual activity is 103%.

What about the residual activity (MAPK1 (human)) of the same compound?
Its residual activity is 88.6%.

What about the residual activity (EPHA1 (human)) of the same compound?
Its residual activity is 97.2%.

And the residual activity (PKN2 (human))?
The residual activity was 107%.

What about the residual activity (CDK9 CCNK (human)) of the same compound?
Its residual activity is 105%.

And the residual activity (KIT (human))?
Its residual activity is 98.8%.

And the residual activity (NEK2 (human))?
Its residual activity is 96.2%.

And the residual activity (RPS6KA2 KD1 KD2 (human))?
Its residual activity is 96.8%.

What about the residual activity (CHUK (human)) of the same compound?
The residual activity was 96.8%.

And the residual activity (MAPKAPK2 (human))?
The residual activity was 97.9%.

What about the residual activity (DCLK2 (human)) of the same compound?
Its residual activity is 102%.

What about the residual activity (PRKCH (human)) of the same compound?
Its residual activity is 87.6%.

And the residual activity (TSSK1B (human))?
The residual activity was 93.4%.

And the residual activity (AURKC (human))?
The residual activity was 97.1%.

What about the residual activity (CSK (human)) of the same compound?
Its residual activity is 106%.

What about the residual activity (CLK3 (human)) of the same compound?
Its residual activity is 92.2%.

What about the residual activity (DYRK1B (human)) of the same compound?
Its residual activity is 96.7%.

What about the residual activity (GSK3A (human)) of the same compound?
Its residual activity is 102%.

`O=C(O)c1ccc2c3c1cccc3c(=O)n1c3ccccc3nc21` was tested. Which residual activity (CDK6 CCND3 (human)) did it give?
Its residual activity is 105%.

What about the residual activity (ROS1 (human)) of the same compound?
The residual activity was 95.2%.

And the residual activity (CSNK2A2 (human))?
Its residual activity is 13.3%.

What about the residual activity (CAMKK2 (human)) of the same compound?
The residual activity was 7.88%.

What about the residual activity (NEK1 (human)) of the same compound?
The residual activity was 87.8%.

What about the residual activity (HIPK4 (human)) of the same compound?
Its residual activity is 86.9%.

What about the residual activity (TEC (human)) of the same compound?
The residual activity was 123%.

What about the residual activity (PTK6 (human)) of the same compound?
The residual activity was 91.1%.

And the residual activity (STK39 (human))?
The residual activity was 102%.

What about the residual activity (FLT1 (human)) of the same compound?
The residual activity was 86.5%.

And the residual activity (RPS6KA5 KD2 (human))?
Its residual activity is 104%.

And the residual activity (MAP2K2 (human))?
The residual activity was 105%.

What about the residual activity (STK17A (human)) of the same compound?
The residual activity was 73.4%.

What about the residual activity (DYRK1A (human)) of the same compound?
Its residual activity is 55.5%.

What about the residual activity (WEE1 (human)) of the same compound?
The residual activity was 84.6%.

What about the residual activity (DYRK4 (human)) of the same compound?
Its residual activity is 95.9%.

What about the residual activity (CSNK1G3 (human)) of the same compound?
The residual activity was 96.9%.

What about the residual activity (TGFBR1 (human)) of the same compound?
The residual activity was 99.4%.

What about the residual activity (MELK (human)) of the same compound?
Its residual activity is 97%.

And the residual activity (ACVRL1 (human))?
The residual activity was 103%.

And the residual activity (KDR (human))?
The residual activity was 101%.

What about the residual activity (PRKCB1 (human)) of the same compound?
The residual activity was 89.8%.

And the residual activity [1]?
The residual activity was 98.4%.

And the residual activity (STK25 (human))?
Its residual activity is 104%.

And the residual activity (PTK2B (human))?
The residual activity was 69.2%.

What about the residual activity (MAPK1 (human)) of the same compound?
Its residual activity is 100%.

And the residual activity (EPHA1 (human))?
Its residual activity is 95.3%.

What about the residual activity (PKN2 (human)) of the same compound?
Its residual activity is 97.9%.

What about the residual activity (CDK9 CCNK (human)) of the same compound?
The residual activity was 76.4%.

And the residual activity (KIT (human))?
Its residual activity is 93.5%.

What about the residual activity (NEK2 (human)) of the same compound?
The residual activity was 109%.

And the residual activity (RPS6KA2 KD1 KD2 (human))?
Its residual activity is 90.5%.

What about the residual activity (CHUK (human)) of the same compound?
The residual activity was 114%.

What about the residual activity (MAPKAPK2 (human)) of the same compound?
Its residual activity is 102%.

What about the residual activity (DCLK2 (human)) of the same compound?
The residual activity was 96.7%.

And the residual activity (PRKCH (human))?
The residual activity was 100%.

And the residual activity (TSSK1B (human))?
Its residual activity is 112%.

What about the residual activity (AURKC (human)) of the same compound?
The residual activity was 88%.

What about the residual activity (CSK (human)) of the same compound?
The residual activity was 101%.

And the residual activity (CLK3 (human))?
Its residual activity is 95.4%.

And the residual activity (DYRK1B (human))?
The residual activity was 40.1%.

What about the residual activity (GSK3A (human)) of the same compound?
The residual activity was 87.3%.
